# Test results taken from US8192962B2, “Processes for detecting toxic substances” (Daikin Industries, Ltd., priority 2001, dated 2012).
# System: Stress protein genes
# Assay: DNA chip mRNA expression in yeast, stress protein genes (Table 6)
# Assay type: cell-based, Saccharomyces cerevisiae S288C
# How it was run: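 S. cerevisiae S288C grown at 25° C. in YPD to log phase, then exposed 2 h to a toxicant at a growth-inhibiting, non-lethal concentration; untreated cells as control. Poly(A) mRNA reverse-transcribed with Cy3-dUTP or Cy5-dUTP, hybridized >12 h at 65° C. to whole-genome yeast DNA chip; value = fluorescence ratio treated/untreated.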
smiles,measurement,setting,value
"N#Cc1c(Cl)c(Cl)c(Cl)c(C#N)c1Cl [(9), 2,4,5,6-tetrachloro-1,3-benzenedicarbonitrile]",The level of expressed mRNA in the presence of chemical substance/The level of expressed mRNA in the absence of chemical substance,yeast gene YIL033C,2.4
same,The level of expressed mRNA in the presence of chemical substance/The level of expressed mRNA in the absence of chemical substance,yeast gene YIR037W,6.2
same,The level of expressed mRNA in the presence of chemical substance/The level of expressed mRNA in the absence of chemical substance,yeast gene YIR038C,4.6
same,The level of expressed mRNA in the presence of chemical substance/The level of expressed mRNA in the absence of chemical substance,yeast gene YJL128C,2.0
same,The level of expressed mRNA in the presence of chemical substance/The level of expressed mRNA in the absence of chemical substance,yeast gene YJL158C,0.2
same,The level of expressed mRNA in the presence of chemical substance/The level of expressed mRNA in the absence of chemical substance,yeast gene YJL159W,0.5
same,The level of expressed mRNA in the presence of chemical substance/The level of expressed mRNA in the absence of chemical substance,yeast gene YJL165C,2.8
same,The level of expressed mRNA in the presence of chemical substance/The level of expressed mRNA in the absence of chemical substance,yeast gene YJR045C,3.2
same,The level of expressed mRNA in the presence of chemical substance/The level of expressed mRNA in the absence of chemical substance,yeast gene YJR090C,1.9
same,The level of expressed mRNA in the presence of chemical substance/The level of expressed mRNA in the absence of chemical substance,yeast gene YKL161C,1.4
same,The level of expressed mRNA in the presence of chemical substance/The level of expressed mRNA in the absence of chemical substance,yeast gene YKL163W,0.7
same,The level of expressed mRNA in the presence of chemical substance/The level of expressed mRNA in the absence of chemical substance,yeast gene YKL164C,0.4
same,The level of expressed mRNA in the presence of chemical substance/The level of expressed mRNA in the absence of chemical substance,yeast gene YKL210W,3.5
same,The level of expressed mRNA in the presence of chemical substance/The level of expressed mRNA in the absence of chemical substance,yeast gene YKR053C,0.8
same,The level of expressed mRNA in the presence of chemical substance/The level of expressed mRNA in the absence of chemical substance,yeast gene YLL024C,2.8
same,The level of expressed mRNA in the presence of chemical substance/The level of expressed mRNA in the absence of chemical substance,yeast gene YLL026W,11.4
same,The level of expressed mRNA in the presence of chemical substance/The level of expressed mRNA in the absence of chemical substance,yeast gene YLL039C,3.4
same,The level of expressed mRNA in the presence of chemical substance/The level of expressed mRNA in the absence of chemical substance,yeast gene YLL060C,13.0
same,The level of expressed mRNA in the presence of chemical substance/The level of expressed mRNA in the absence of chemical substance,yeast gene YLR006C,1.1
same,The level of expressed mRNA in the presence of chemical substance/The level of expressed mRNA in the absence of chemical substance,yeast gene YLR109W,2.4
same,The level of expressed mRNA in the presence of chemical substance/The level of expressed mRNA in the absence of chemical substance,yeast gene YLR259C,1.8
same,The level of expressed mRNA in the presence of chemical substance/The level of expressed mRNA in the absence of chemical substance,yeast gene YML007W,2.1
same,The level of expressed mRNA in the presence of chemical substance/The level of expressed mRNA in the absence of chemical substance,yeast gene YML070W,4.5
same,The level of expressed mRNA in the presence of chemical substance/The level of expressed mRNA in the absence of chemical substance,yeast gene YMR021C,0.6
same,The level of expressed mRNA in the presence of chemical substance/The level of expressed mRNA in the absence of chemical substance,yeast gene YMR173W,2.7
same,The level of expressed mRNA in the presence of chemical substance/The level of expressed mRNA in the absence of chemical substance,yeast gene YMR186W,2.6
same,The level of expressed mRNA in the presence of chemical substance/The level of expressed mRNA in the absence of chemical substance,yeast gene YNL064C,2.4
same,The level of expressed mRNA in the presence of chemical substance/The level of expressed mRNA in the absence of chemical substance,yeast gene YNL160W,3.5
same,The level of expressed mRNA in the presence of chemical substance/The level of expressed mRNA in the absence of chemical substance,yeast gene YNL241C,3.4
same,The level of expressed mRNA in the presence of chemical substance/The level of expressed mRNA in the absence of chemical substance,yeast gene YNR076W,1.3
same,The level of expressed mRNA in the presence of chemical substance/The level of expressed mRNA in the absence of chemical substance,yeast gene YOL064C,8.7
same,The level of expressed mRNA in the presence of chemical substance/The level of expressed mRNA in the absence of chemical substance,yeast gene YOL161C,0.7
same,The level of expressed mRNA in the presence of chemical substance/The level of expressed mRNA in the absence of chemical substance,yeast gene YOR008C,1.9
same,The level of expressed mRNA in the presence of chemical substance/The level of expressed mRNA in the absence of chemical substance,yeast gene YOR009W,0.4
same,The level of expressed mRNA in the presence of chemical substance/The level of expressed mRNA in the absence of chemical substance,yeast gene YOR010C,0.6
same,The level of expressed mRNA in the presence of chemical substance/The level of expressed mRNA in the absence of chemical substance,yeast gene YOR027W,3.5
same,The level of expressed mRNA in the presence of chemical substance/The level of expressed mRNA in the absence of chemical substance,yeast gene YOR208W,1.5
same,The level of expressed mRNA in the presence of chemical substance/The level of expressed mRNA in the absence of chemical substance,yeast gene YPL059W,2.0
same,The level of expressed mRNA in the presence of chemical substance/The level of expressed mRNA in the absence of chemical substance,yeast gene YPL106C,4.9
same,The level of expressed mRNA in the presence of chemical substance/The level of expressed mRNA in the absence of chemical substance,yeast gene YPL140C,0.9
same,The level of expressed mRNA in the presence of chemical substance/The level of expressed mRNA in the absence of chemical substance,yeast gene YPL194W,9.6
same,The level of expressed mRNA in the presence of chemical substance/The level of expressed mRNA in the absence of chemical substance,yeast gene YPL223C,29.4
same,The level of expressed mRNA in the presence of chemical substance/The level of expressed mRNA in the absence of chemical substance,yeast gene YPL240C,3.5
same,The level of expressed mRNA in the presence of chemical substance/The level of expressed mRNA in the absence of chemical substance,yeast gene YPR005C,2.8
same,The level of expressed mRNA in the presence of chemical substance/The level of expressed mRNA in the absence of chemical substance,yeast gene YPR026W,0.9
